Several values for one entry are separate records, joined by “and”; a condition that tells them apart may be missing. Identical values can stand only once.
Conditions: 283.16 K, Liquid, Vibrating tube method

CCCCCC(=O)OCC(COC(=O)CCCCC)(COC(=O)CCCCC)COC(=O)CCCCC [pentaerythritol tetrahexanoate]
Conditions | mass density
227.4 kPa | 1004.4 kg/m3
235.2 kPa | 1004.3 kg/m3
235.3 kPa | 1004.3 kg/m3
237.1 kPa | 1004.4 kg/m3
361.3 kPa | 1004.3 kg/m3
363.1 kPa | 1004.3 kg/m3
365.9 kPa | 1004.3 kg/m3
403.2 kPa | 1004.4 kg/m3
405.8 kPa | 1004.3 kg/m3
408.6 kPa | 1004.4 kg/m3
410.7 kPa | 1004.4 kg/m3
439.2 kPa | 1004.4 kg/m3
500.7 kPa | 1004.3 kg/m3
504.2 kPa | 1004.4 kg/m3
508.2 kPa | 1004.5 kg/m3
663.2 kPa | 1004.4 kg/m3
669.2 kPa | 1004.5 kg/m3
813.4 kPa | 1004.5 kg/m3
1597.6 kPa | 1005.1 kg/m3
1612.4 kPa | 1005 kg/m3
1627.1 kPa | 1005.2 kg/m3
1642.8 kPa | 1005.2 kg/m3
1657.5 kPa | 1005.1 kg/m3
1675.4 kPa | 1005.1 kg/m3
1690.5 kPa | 1005.2 kg/m3
1705.1 kPa | 1005.2 kg/m3
1720 kPa | 1005.1 kg/m3
1767.2 kPa | 1005.1 kg/m3
1782.2 kPa | 1005.2 kg/m3
1800 kPa | 1005.2 kg/m3
1833.4 kPa | 1005.3 kg/m3
1844.8 kPa | 1005.2 kg/m3
2221.4 kPa | 1005.5 kg/m3
2237 kPa | 1005.5 kg/m3
2251.7 kPa | 1005.5 kg/m3
2267.5 kPa | 1005.4 kg/m3
2279.3 kPa | 1005.5 kg/m3
2540.2 kPa | 1005.7 kg/m3
2564.1 kPa | 1005.7 kg/m3
2812.8 kPa | 1005.7 kg/m3
2855.3 kPa | 1005.8 kg/m3
3252.2 kPa | 1006 kg/m3
3270.9 kPa | 1006.1 kg/m3
3286.9 kPa | 1006.1 kg/m3
3302.6 kPa | 1006.1 kg/m3
3318.6 kPa | 1006.2 kg/m3
3372.5 kPa | 1006.1 kg/m3
3388.4 kPa | 1006.1 kg/m3
3420.8 kPa | 1006.1 kg/m3
3440.8 kPa | 1006.1 kg/m3
3456.7 kPa | 1006.1 kg/m3
3473.5 kPa | 1006.1 kg/m3
3493.4 kPa | 1006.3 kg/m3
3510.2 kPa | 1006.3 kg/m3
3530.5 kPa | 1006.2 kg/m3
3547.3 kPa | 1006.3 kg/m3
3564.3 kPa | 1006.2 kg/m3
3581.1 kPa | 1006.3 kg/m3
3601.7 kPa | 1006.3 kg/m3
3619.1 kPa | 1006.3 kg/m3
3636 kPa | 1006.1 kg/m3
3657.3 kPa | 1006.3 kg/m3
3674.7 kPa | 1006.2 kg/m3
3692.2 kPa | 1006.3 kg/m3
3709.8 kPa | 1006.3 kg/m3
3730.8 kPa | 1006.4 kg/m3
3748.8 kPa | 1006.3 kg/m3
3766.1 kPa | 1006.4 kg/m3
3784.2 kPa | 1006.4 kg/m3
3805.3 kPa | 1006.3 kg/m3
3823 kPa | 1006.3 kg/m3
3841.3 kPa | 1006.5 kg/m3
3863 kPa | 1006.3 kg/m3
3877.2 kPa | 1006.4 kg/m3
3895.2 kPa | 1006.5 kg/m3
3920.3 kPa | 1006.4 kg/m3
3938.5 kPa | 1006.5 kg/m3
4764.4 kPa | 1006.8 kg/m3
4769.6 kPa | 1006.9 kg/m3
4781 kPa | 1006.9 kg/m3
4797.5 kPa | 1007 kg/m3
5309.2 kPa | 1007.3 kg/m3
5315.8 kPa | 1007.3 kg/m3
5321.5 kPa | 1007.3 kg/m3
5327.9 kPa | 1007.2 kg/m3
5334.1 kPa | 1007.3 kg/m3
5341.5 kPa | 1007.2 kg/m3
5347.3 kPa | 1007.4 kg/m3
5354.7 kPa | 1007.4 kg/m3
5361.1 kPa | 1007.3 kg/m3
5367.3 kPa | 1007.2 kg/m3
5373.4 kPa | 1007.3 kg/m3
5380.6 kPa | 1007.3 kg/m3
5386.9 kPa | 1007.3 kg/m3
5392.9 kPa | 1007.3 kg/m3
5400.4 kPa | 1007.2 kg/m3
5406.9 kPa | 1007.2 kg/m3
5413 kPa | 1007.3 kg/m3
5419.4 kPa | 1007.3 kg/m3
5426.8 kPa | 1007.3 kg/m3
5432 kPa | 1007.3 kg/m3
5438.4 kPa | 1007.3 kg/m3
5446 kPa | 1007.4 kg/m3
5521.9 kPa | 1007.3 kg/m3
6618.4 kPa | 1007.9 kg/m3
6623.1 kPa | 1008.1 kg/m3
6626.7 kPa | 1008 kg/m3
6630.5 kPa | 1008.2 kg/m3
6653 kPa | 1008 kg/m3
6657.1 kPa | 1008.1 kg/m3
6661.4 kPa | 1008 kg/m3
6666.3 kPa | 1008 kg/m3
6670.4 kPa | 1008 kg/m3
6722 kPa | 1008 kg/m3
6726 kPa | 1008.1 kg/m3
6730.2 kPa | 1008.1 kg/m3
6734.1 kPa | 1008.1 kg/m3
6738.3 kPa | 1008 kg/m3
6743.3 kPa | 1008.1 kg/m3
6747.1 kPa | 1007.9 kg/m3
6750.9 kPa | 1008 kg/m3
6755.6 kPa | 1008 kg/m3
6763.5 kPa | 1008.2 kg/m3
6768 kPa | 1008 kg/m3
6772.6 kPa | 1008 kg/m3
6775.9 kPa | 1008.2 kg/m3 and 1008.1 kg/m3
6776.4 kPa | 1008.1 kg/m3 and 1008 kg/m3
6783.8 kPa | 1008 kg/m3
6784.2 kPa | 1008.2 kg/m3
6784.5 kPa | 1008 kg/m3
6785.8 kPa | 1008.2 kg/m3
8353.5 kPa | 1009.1 kg/m3
8367.6 kPa | 1008.9 kg/m3
9689.3 kPa | 1009.7 kg/m3 and 1009.8 kg/m3
9689.5 kPa | 1009.7 kg/m3
9689.6 kPa | 1009.7 kg/m3
9689.8 kPa | 1009.7 kg/m3
9690.2 kPa | 1009.8 kg/m3
9691.7 kPa | 1009.7 kg/m3
9694.6 kPa | 1009.8 kg/m3
9697.7 kPa | 1009.8 kg/m3
9697.9 kPa | 1009.8 kg/m3 and 1009.9 kg/m3
9702.1 kPa | 1009.8 kg/m3
9711.5 kPa | 1009.8 kg/m3

— the NIST ThermoML archive (doi:10.1021/je060271a)
